From patent US10450292B2, “Inhibitors of bacterial RNA polymerase: arylpropanoyl, arylpropenoyl, and arylcyclopropanecarboxyl phloroglucinols” (Rutgers, The State University of New Jersey, priority 2015, dated 2019)
In brackets after ≈: the same amount, converted by molar mass.

Experiments:
[1] = test system: Escherichia coli D21f2tolC; experiment: microbe, parasite or virus in culture; conditions: 16 h, read-out: MIC E. coli D21f2tolC, Mueller-Hinton II agar, 16 h at 37° C.
[2] = test system: Enterococcus faecalis ATCC 19433; experiment: Inhibition of bacterial growth in culture, spiral gradient endpoint assay (MIC); format: cell-based; conditions: for MIC: Enterococcus faecalis, ATCC 19433 /, 16 h, read-out: MIC E. faecalis, Mueller-Hinton II agar, 16 h at 37° C.
Excerpt: J. Microbiol. Meths. […] Int. J. Exp. Clin. Chemother. […] Adv.

[3] = test system: Staphylococcus aureus ATCC 12600; experiment: as above; conditions: Staphylococcus aureus, ATCC12600, 16 h, read-out: MIC S. aureus 12600, Mueller-Hinton II agar, 16 h at 37° C.

Cc1cc(Oc2ccc(F)cc2)ccc1C1CC1C(=O)c1c(O)cc(O)c(Cl)c1O (stereo not drawn) [Example 52, (3-chloro-2,4,6-trihydroxyphenyl)(2-(4-(4-fluorophenoxy)-2-methylphenyl)cyclopropyl)methanone]
MIC [1]: 7.5 µg/mL (≈ 17.5 µM)
MIC [2]: 5.2 µg/mL (≈ 12.1 µM)
MIC [3]: 3.2 µg/mL (≈ 7.46 µM)

Cc1cc(Cl)ccc1C1CC1C(=O)c1c(O)cc(O)cc1O (stereo not drawn) [Example 53, (2-(4-chloro-2-methylphenyl)cyclopropyl)(2,4,6-trihydroxyphenyl)methanone]
MIC [1]: 4.7 µg/mL (≈ 14.7 µM)
MIC [2]: 5.3 µg/mL (≈ 16.6 µM)
MIC [3]: 4.7 µg/mL (≈ 14.7 µM)

O=C(c1c(O)cc(O)c(Cl)c1O)C1CC1c1ccc(Cl)cc1C(F)(F)F (stereo not drawn) [Example 54, (3-chloro-2,4,6-trihydroxyphenyl)(2-(4-chloro-2-(trifluoromethyl)phenyl)cyclopropyl)methanone]
MIC [1]: 17 µg/mL (≈ 41.8 µM)
MIC [2]: 17 µg/mL (≈ 41.8 µM)
MIC [3]: 12 µg/mL (≈ 29.5 µM)

O=C(c1c(O)cc(O)c(Cl)c1O)C1CC1c1ccc(Cl)cc1 (stereo not drawn) [Example 55, (3-chloro-2,4,6-trihydroxyphenyl)(2-(4-chlorophenyl)cyclopropyl)methanone]
MIC [1]: > 40 µg/mL
MIC [2]: 22 µg/mL (≈ 64.9 µM)
MIC [3]: 17 µg/mL (≈ 50.1 µM)

Cc1cc(Cl)ccc1C1CC1C(=O)c1c(O)cc(O)c(Cl)c1O (stereo not drawn) [Example 56, (3-chloro-2,4,6-trihydroxyphenyl)(2-(4-chloro-2-methylphenyl)cyclopropyl)methanone]
MIC [1]: > 40 µg/mL
MIC [2]: 22 µg/mL (≈ 62.3 µM)
MIC [3]: 17 µg/mL (≈ 48.1 µM)

O=C(c1c(O)cc(O)cc1O)C1CC1c1ccc(C(F)(F)F)cc1C(F)(F)F (stereo not drawn) [Example 57, (2-(2,4-bis(trifluoromethyl)phenyl)cyclopropyl)(2,4,6-trihydroxyphenyl)methanone]
MIC [1]: 3.5 µg/mL (≈ 8.61 µM)
MIC [2]: 5.7 µg/mL (≈ 14 µM)
MIC [3]: 4.3 µg/mL (≈ 10.6 µM)

O=C(c1c(O)cc(O)cc1O)C1CC1c1ccc(C(F)(F)F)cc1 (stereo not drawn) [Example 58, (2-(4-(trifluoromethyl)phenyl)cyclopropyl)(2,4,6-trihydroxyphenyl)methanone]
MIC [1]: 3.9 µg/mL (≈ 11.5 µM)
MIC [2]: 12 µg/mL (≈ 35.5 µM)
MIC [3]: 10 µg/mL (≈ 29.6 µM)

CCCC1=C(O)C(CCC)(CCC)C(=O)C(C(=O)C2CC2c2ccc(Oc3ccccc3)cc2)=C1O (stereo not drawn) [Example 59, 3,5-dihydroxy-2-(2-(4-phenoxyphenyl)cyclopropanecarbonyl)-4,6,6-tripropylcyclohexa-2,4-dienone]
MIC [1]: 1.1 µg/mL (≈ 2.25 µM)
MIC [2]: 3 µg/mL (≈ 6.14 µM)
MIC [3]: 0.7 µg/mL (≈ 1.43 µM)

CCCC1(CCC)C(=O)C(C(=O)C2CC2c2ccc(Oc3ccccc3)cc2)=C(O)C=C1O (stereo not drawn) [Example 60, 3,5-dihydroxy-2-(2-(4-phenoxyphenyl)cyclopropanecarbonyl)-6,6-dipropylcyclohexa-2,4-dien-1one]
MIC [1]: 3.9 µg/mL (≈ 8.73 µM)
MIC [2]: > 40 µg/mL
MIC [3]: 10 µg/mL (≈ 22.4 µM)

CCC1=C(O)C(CC)(CC)C(=O)C(C(=O)CCc2ccc(Oc3ccc(F)cc3)cc2)=C1O [Example 61, 4,6,6-triethyl-2-(3-(4-(4-fluorophenoxy)phenyl)propanoyl)-3,5-dihydroxycyclohexa-2,4-dienone]
MIC [1]: 0.24 µg/mL (≈ 0.53 µM)
MIC [2]: 0.44 µg/mL (≈ 0.972 µM)
MIC [3]: 0.56 µg/mL (≈ 1.24 µM)

CCC1=C(O)C(CC)(CC)C(=O)C(C(=O)C2CC2c2ccc(Oc3ccc(F)cc3)cc2)=C1O (stereo not drawn) [Example 62, 4,6,6-triethyl-2-(2-(4-(4-fluorophenoxy)phenyl)cyclopropanecarbonyl)-3,5-dihydroxycyclohexa-2,4-dienone]
MIC [1]: 0.28 µg/mL (≈ 0.603 µM)
MIC [2]: 0.51 µg/mL (≈ 1.1 µM)
MIC [3]: 0.4 µg/mL (≈ 0.861 µM)

CCCC1(CCC)C(=O)C(C(=O)CCc2ccc(Oc3ccc(F)cc3)cc2)=C(O)C=C1O [Example 63, 2-(3-(4-(4-fluorophenoxy)phenyl)propanoyl)-3,5-dihydroxy-6,6-dipropylcyclohexa-2,4-dienone]
MIC [1]: 2.4 µg/mL (≈ 5.3 µM)
MIC [2]: > 40 µg/mL
MIC [3]: 5.1 µg/mL (≈ 11.3 µM)

CCCC1=C(O)C(CCC)(CCC)C(=O)C(C(=O)CCc2ccc(Oc3ccc(F)cc3)cc2)=C1O [Example 64, 2-(3-(4-(4-fluorophenoxy)phenyl)propanoyl)-3,5-dihydroxy-4,6,6-tripropylcyclohexa-2,4-dienone]
MIC [1]: 0.34 µg/mL (≈ 0.687 µM)
MIC [2]: 0.34 µg/mL (≈ 0.687 µM)
MIC [3]: 0.26 µg/mL (≈ 0.526 µM)

CCCC1(CCC)C(=O)C(C(=O)C2CC2c2ccc(Oc3ccc(F)cc3)cc2)=C(O)C=C1O (stereo not drawn) [Example 65, 2-(2-(4-(4-fluorophenoxy)phenyl)cyclopropanecarbonyl)-3,5-dihydroxy-6,6-dipropylcyclohexa-2,4-dienone]
MIC [1]: > 40 µg/mL
MIC [2]: 1.9 µg/mL (≈ 4.09 µM)
MIC [3]: 1.9 µg/mL (≈ 4.09 µM)

CCCC1=C(O)C(CCC)(CCC)C(=O)C(C(=O)C2CC2c2ccc(Oc3ccc(F)cc3)cc2)=C1O (stereo not drawn) [Example 66, 2-(2-(4-(4-fluorophenoxy)phenyl)cyclopropanecarbonyl)-3,5-dihydroxy-4,6,6-tripropylcyclohexa-2,4-dienone]
MIC [1]: 0.72 µg/mL (≈ 1.42 µM)
MIC [2]: 0.55 µg/mL (≈ 1.09 µM)
MIC [3]: 0.16 µg/mL (≈ 0.316 µM)

CCCC1=C(O)C(CCC)(CCC)C(=O)C(C(=O)CCc2ccc(Oc3ccc(F)cc3)cc2C(F)(F)F)=C1O [Example 68, 2-(3-(4-(4-fluorophenoxy)-2-(trifluoromethyl)phenyl)propanoyl)-3,5-dihydroxy-4,6,6-tripropylcyclohexa-2,4-dienone]
MIC [1]: 1.5 µg/mL (≈ 2.67 µM)
MIC [2]: 1.3 µg/mL (≈ 2.31 µM)
MIC [3]: 0.6 µg/mL (≈ 1.07 µM)

CCCC1=C(O)C(CCC)(CCC)C(=O)C(C(=O)CCc2ccc(Oc3ccc(F)cc3)cc2C)=C1O [Example 69, 2-(3-(4-(4-fluorophenoxy)-2-methylphenyl)propanoyl)-3,5-dihydroxy-4,6,6-tripropylcyclohexa-2,4-dienone]
MIC [1]: 1.1 µg/mL (≈ 2.16 µM)
MIC [2]: 1.4 µg/mL (≈ 2.75 µM)
MIC [3]: 1.1 µg/mL (≈ 2.16 µM)

CCCC1=C(O)C(CCC)(CCC)C(=O)C(C(=O)C2CC2c2ccc(Oc3ccc(F)cc3)cc2C(F)(F)F)=C1O (stereo not drawn) [Example 70, 2-(2-(4-(4-fluorophenoxy)-2-(trifluoromethyl)phenyl)cyclopropanecarbonyl)-3,5-dihydroxy-4,6,6-tripropylcyclohexa-2,4-dienone]
MIC [1]: 8.2 µg/mL (≈ 14.3 µM)
MIC [2]: 1.2 µg/mL (≈ 2.09 µM)
MIC [3]: 1.5 µg/mL (≈ 2.61 µM)

CCCC1=C(O)C(CCC)(CCC)C(=O)C(C(=O)C2CC2c2ccc(Oc3ccc(F)cc3)cc2C)=C1O (stereo not drawn) [Example 71, 2-(2-(4-(4-fluorophenoxy)-2-methylphenyl)cyclopropanecarbonyl)-3,5-dihydroxy-4,6,6-tripropylcyclohexa-2,4-dienone]
MIC [1]: 2.3 µg/mL (≈ 4.42 µM)
MIC [2]: 2.1 µg/mL (≈ 4.03 µM)
MIC [3]: 0.9 µg/mL (≈ 1.73 µM)

CCC1=C(O)C(CC)(CC)C(=O)C(C(=O)C2CC2c2ccc(Oc3ccc(F)cc3)cc2C(F)(F)F)=C1O (stereo not drawn) [Example 72, 4,6,6-triethyl-2-(2-(4-(4-fluorophenoxy)-2-(trifluoromethyl)phenyl)cyclopropanecarbonyl)-3,5-dihydroxycyclohexa-2,4-dienone]
MIC [1]: 1.6 µg/mL (≈ 3 µM)
MIC [2]: > 40 µg/mL
MIC [3]: 6.5 µg/mL (≈ 12.2 µM)

CCC1=C(O)C(CC)(CC)C(=O)C(C(=O)CCc2ccc(Oc3ccc(F)cc3)cc2C(F)(F)F)=C1O [Example 73, 4,6,6-triethyl-2-(3-(4-(4-fluorophenoxy)-2-(trifluoromethyl)phenyl)propanoyl)-3,5-dihydroxycyclohexa-2,4-dienone]
MIC [1]: 1.2 µg/mL (≈ 2.31 µM)
MIC [2]: 1.6 µg/mL (≈ 3.07 µM)
MIC [3]: 1.5 µg/mL (≈ 2.88 µM)

CCC1=C(O)C(CC)(CC)C(=O)C(C(=O)CCc2ccc(Oc3ccc(F)cc3)cc2C)=C1O [Example 74, 4,6,6-triethyl-2-(3-(4-(4-fluorophenoxy)-2-methylphenyl)propanoyl)-3,5-dihydroxycyclohexa-2,4-dienone]
MIC [1]: 0.9 µg/mL (≈ 1.93 µM)
MIC [2]: 11 µg/mL (≈ 23.6 µM)
MIC [3]: 1.7 µg/mL (≈ 3.64 µM)

CC1=C(O)C(C)(C)C(=O)C(C(=O)C2CC2c2ccc(Oc3ccc(F)cc3)cc2C)=C1O (stereo not drawn) [Example 75, 2-(2-(4-(4-fluorophenoxy)-2-methylphenyl)cyclopropanecarbonyl)-3,5-dihydroxy-4,6,6-trimethylcyclohexa-2,4-dienone]
MIC [1]: 5.1 µg/mL (≈ 11.7 µM)
MIC [2]: > 40 µg/mL
MIC [3]: 17 µg/mL (≈ 38.9 µM)

CC1=C(O)C(C)(C)C(=O)C(C(=O)C2CC2c2ccc(Cl)cc2C(F)(F)F)=C1O (stereo not drawn) [Example 76, 2-(2-(4-chloro-2-(trifluoromethyl)phenyl)cyclopropanecarbonyl)-3,5-dihydroxy-4,6,6-trimethylcyclohexa-2,4-dienone]
MIC [1]: 3.1 µg/mL (≈ 7.47 µM)
MIC [2]: > 40 µg/mL
MIC [3]: 12 µg/mL (≈ 28.9 µM)

CC1=C(O)C(C)(C)C(=O)C(C(=O)C2CC2c2ccc(Cl)cc2C)=C1O (stereo not drawn) [Example 77, 2-(2-(4-chloro-2-methylphenyl)cyclopropanecarbonyl)-3,5-dihydroxy-4,6,6-trimethylcyclohexa-2,4-dienone]
MIC [1]: 7.4 µg/mL (≈ 20.5 µM)
MIC [2]: > 40 µg/mL
MIC [3]: > 40 µg/mL

CC1=C(O)C(C)(C)C(=O)C(C(=O)CCc2ccc(Oc3ccc(F)cc3)cc2)=C1O [Example 78, 2-(3-(4-(4-fluorophenoxy)phenyl)propanoyl)-3,5-dihydroxy-4,6,6-trimethylcyclohexa-2,4-dienone]
MIC [1]: 6.5 µg/mL (≈ 15.8 µM)
MIC [2]: > 40 µg/mL
MIC [3]: > 40 µg/mL

CCCC1=C(O)C(CCC)(CCC)C(=O)C(C(=O)C2CC2c2ccc(Cl)cc2)=C1O (stereo not drawn) [Example 79, 2-(2-(4-chlorophenyl)cyclopropanecarbonyl)-3,5-dihydroxy-4,6,6-tripropylcyclohexa-2,4-dienone]
MIC [1]: 0.15 µg/mL (≈ 0.348 µM)
MIC [2]: 0.61 µg/mL (≈ 1.42 µM)
MIC [3]: 0.27 µg/mL (≈ 0.626 µM)

CCCC1=C(O)C(CCC)(CCC)C(=O)C(C(=O)C2CC2c2ccc(Cl)cc2C(F)(F)F)=C1O (stereo not drawn) [Example 80, 2-(2-(4-chloro-2-(trifluoromethyl)phenyl)cyclopropanecarbonyl)-3,5-dihydroxy-4,6,6-tripropylcyclohexa-2,4-dienone]
MIC [1]: 0.33 µg/mL (≈ 0.661 µM)
MIC [2]: 0.42 µg/mL (≈ 0.842 µM)
MIC [3]: 0.14 µg/mL (≈ 0.281 µM)

CCC1=C(O)C(CC)(CC)C(=O)C(C(=O)C2CC2c2ccc(Cl)cc2)=C1O (stereo not drawn) [Example 81, 2-(2-(4-chlorophenyl)cyclopropanecarbonyl)-4,6,6-triethyl-3,5-dihydroxycyclohexa-2,4-dienone]
MIC [1]: 2.2 µg/mL (≈ 5.66 µM)
MIC E. faecalis H37Rv ([2]; Mueller-Hinton II agar, 16 h at 37° C.): 11 µg/mL (≈ 28.3 µM)
MIC [3]: 4.5 µg/mL (≈ 11.6 µM)
